The results in this text go back to publication PMC11705230, “Discovery and Synthetic Applications of a NAD(P)H-Dependent Reductive Aminase from Rhodococcus erythropolis” (ACS Catalysis, 2024).

The target in this assay is T1, RytRedAm (Rhodococcus erythropolis, UniProt Z9GXG8TLZ1).
T1 construct: recombinant, N-terminal His-tag in pET-28a(+), E. coli BL21(DE3); Ni-NTA purified; homodimer; printed residues R35, I69, T90, D166, Y235
T1 sequence (Z9GXG8TLZ1 1-291): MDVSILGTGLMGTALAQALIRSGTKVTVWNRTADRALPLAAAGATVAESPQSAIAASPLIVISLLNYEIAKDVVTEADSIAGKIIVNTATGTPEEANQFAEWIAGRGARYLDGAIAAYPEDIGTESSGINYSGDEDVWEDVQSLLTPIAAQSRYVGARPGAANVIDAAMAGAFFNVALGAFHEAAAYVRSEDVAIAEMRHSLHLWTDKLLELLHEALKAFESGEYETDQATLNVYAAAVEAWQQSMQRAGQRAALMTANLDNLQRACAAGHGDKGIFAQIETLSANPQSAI
The assay is described as follows: X-ray crystallography. Conditions: cocrystallized with NADP+, nicotinamide ring and ribose density absent; cofactor site; pH 7.0. The class given is binding.

`Nc1ncnc2c1ncn2[C@@H]1O[C@H](COP(=O)(O)OP(=O)(O)O)[C@@H](O)[C@H]1OP(=O)(O)O` [ADP-2RP]: the X-ray crystallography entry is given as “crystals obtained with the latter gave an ADP-2′-ribose phosphate (ADP-2RP) complex”.
